Source: patent US20250382293A1, “COMPOUNDS AND METHODS FOR YAP/TEAD MODULATION AND INDICATIONS THEREFOR” (OPNA BIO SA, priority 2023, published 2025)

These compounds were tested on TEAD-dependent transcription (assay: Inhibitor activity against TEAD-dependent transcription in a cell-based reporter assay (MSTO-211H+12XGTIIC luciferase)). Conditions: Homo sapiens; MSTO-211H+12XGTIIC cells, 24 hours compound incubation, luminescence normalized to cell viability signal; read-out: MSTO-211H GMean IC50 (uM) Cell Assay Reporter Cell Variant: TEAD.
Excerpt: Determine Inhibitor Activity Against TEAD-Dependent Transcription in a Cell-Based Reporter Assay
The human mesothelioma cell line MSTO-211H was stably transfected with a pGL4.21 plasmid containing a synthetic promoter with 12 copies of the GTIIC TEAD response element that drives the expression of a luciferase reporter gene 1 using Lipofectamine transfection reagent (Thermo Fisher). Transfected cells were selected using puromycin and single cell clones expressing this construct (referred to as MSTO-211H+12XGTIIC) were generated by limiting dilution. MSTO-211H cells was characterized by genetic alterations in key components of the Hippo pathway^2, resulting in up-regulation of YAP/TEAD-mediated transcription. […] To evaluate TEAD inhibitors, the MSTO-211H+12XGTIIC cell line was seeded in a 96-well plate in 50 μL of culture media at 1×10^4 cells per well and incubated at 37° C. overnight. Serial dilutions of compounds (in total volume of 50 μL of culture media) were added to the cells and incubated at 37° C. for 24 hours. Each plate included cells treated with DMSO as high controls and cells treated with 20 μM of the reference compound K-975 (a known TEAD inhibitor) 3 as low controls. Cell viability was assayed by the addition of 25 μL of CellTiter-Fluor reagent (Promega) followed by a 30-minute incubation at 37° C. and quantification of the fluorescence signal (Ex400/Em505). Subsequently, luciferase expression was assayed by the addition of 25 μL of ONE-Glo reagent (Promega) followed by a 10-minute incubation at room temperature and quantification of the luminescence signal. The luminescence signal was normalized to the fluorescence signal to correct for any loss in cell viability over the 24-hour compound incubation period. The percentage of inhibition of normalized luminescence signal, indicative of compound-mediated inhibition of TEAD-dependent transcription, at individual compound concentrations relative to high and low controls was calculated. The data were analyzed by using nonlinear regression to generate IC50 values for individual compounds.

`O=C(CCS(=O)(=O)C(F)(F)F)N1CCc2c(cccc2Oc2ccc(C(F)(F)F)nc2)C1` [O-0002, 1-(5-((6-(trifluoromethyl)pyridin-3-yl)oxy)-3,4-dihydroisoquinolin-2(1H)-yl)-3-((trifluoromethyl)sulfonyl)propan-1-one] and `O=C(CCS(=O)(=O)C(F)(F)F)N1CCc2c(ncnc2Oc2ccc(C(F)(F)F)cc2)C1` [O-0003, 1-(4-(4-(trifluoromethyl)phenoxy)-5,8-dihydropyrido[3,4-d]pyrimidin-7(6H)-yl)-3-((trifluoromethyl)sulfonyl)propan-1-one] fall in the same range of IC50: 0.001 to 10 µM for the first, 0.001 to 10 µM for the second.

`C=CC(=O)N1CCc2cc(Oc3ccc(C(F)(F)F)cc3)ccc2C1` [O-0058, 1-(6-(4-(trifluoromethyl)phenoxy)-3,4-dihydroisoquinolin-2(1H)-yl)prop-2-en-1-one] and `O=C(CCl)N1CCc2cc(Oc3ccc(C(F)(F)F)cc3)ccc2C1` [O-0070, 2-chloro-1-(6-(4-(trifluoromethyl)phenoxy)-3,4-dihydroisoquinolin-2(1H)-yl)ethan-1-one] fall in the same range of IC50: 0.001 to 10 µM for the first, 0.001 to 10 µM for the second.

First: C=CS(=O)(=O)N1CCc2cc(Oc3ccc(C(F)(F)F)cc3)ccc2C1 [O-0064, 6-(4-(trifluoromethyl)phenoxy)-2-(vinylsulfonyl)-1,2,3,4-tetrahydroisoquinoline]
Second: O=S(=O)(c1ccccc1)N1CCc2cc(Oc3ccc(C(F)(F)F)cc3)ccc2C1 [O-0104, 2-(phenylsulfonyl)-6-(4-(trifluoromethyl)phenoxy)-1,2,3,4-tetrahydroisoquinoline]
The IC50 of the first is lower: 0.001 to 10 µM for the first, 10 to 100 µM for the second. The first is the more potent here.

`O=C(c1c[nH]c(C(F)(F)F)n1)N1CCc2cc(Oc3ccc(C(F)(F)F)cc3)ccc2C1` [O-0074, (2-(trifluoromethyl)-1H-imidazol-4-yl)(6-(4-(trifluoromethyl)phenoxy)-3,4-dihydroisoquinolin-2(1H)-yl)methanone] and `CNS(=O)(=O)c1nc(C(=O)N2CCc3c(cccc3Oc3ccc(C(F)(F)F)cc3)C2)cs1` [O-0107, N-methyl-4-(5-(4-(trifluoromethyl)phenoxy)-1,2,3,4-tetrahydroisoquinoline-2-carbonyl)thiazole-2-sulfonamide] fall in the same range of IC50: 0.001 to 10 µM for the first, 0.001 to 10 µM for the second.

`CCCNS(=O)(=O)c1nc(C(=O)N2CCc3c(cccc3Oc3ccc(C(F)(F)F)cc3)C2)cs1` [O-0105, N-propyl-4-(5-(4-(trifluoromethyl)phenoxy)-1,2,3,4-tetrahydroisoquinoline-2-carbonyl)thiazole-2-sulfonamide] and `CCNS(=O)(=O)c1nc(C(=O)N2CCc3c(cccc3Oc3ccc(C(F)(F)F)cc3)C2)cs1` [O-0108, N-ethyl-4-(5-(4-(trifluoromethyl)phenoxy)-1,2,3,4-tetrahydroisoquinoline-2-carbonyl)thiazole-2-sulfonamide] fall in the same range of IC50: 0.001 to 10 µM for the first, 0.001 to 10 µM for the second.

`CS(=O)(=O)Nc1nc(C(=O)N2CCc3c(cccc3Oc3ccc(C(F)(F)F)c(F)c3)C2)co1` [O-0106, N-(4-(5-(3-fluoro-4-(trifluoromethyl)phenoxy)-1,2,3,4-tetrahydroisoquinoline-2-carbonyl)oxazol-2-yl)methanesulfonamide] and `CS(=O)(=O)Nc1nc(C(=O)N2CCc3c(cccc3Oc3ccc(C(F)(F)F)c(F)c3)C2)cs1` [O-0109, N-(4-(5-(3-fluoro-4-(trifluoromethyl)phenoxy)-1,2,3,4-tetrahydroisoquinoline-2-carbonyl)thiazol-2-yl)methanesulfonamide] fall in the same range of IC50: 10 to 100 µM for the first, 10 to 100 µM for the second.

`CS(=O)(=O)Nc1nc(C(=O)N2CCc3c(cccc3Oc3ccc(C(F)(F)F)cc3)C2)cs1` [O-0110, N-(4-(5-(4-(trifluoromethyl)phenoxy)-1,2,3,4-tetrahydroisoquinoline-2-carbonyl)thiazol-2-yl)methanesulfonamide] and `CS(=O)(=O)N1CC(N2CCc3c(cccc3Oc3ccc(C(F)(F)F)cc3)C2)C1` [O-0115, 2-(1-(methylsulfonyl)azetidin-3-yl)-5-(4-(trifluoromethyl)phenoxy)-1,2,3,4-tetrahydroiso-quinoline] fall in the same range of IC50: 0.001 to 10 µM for the first, 0.001 to 10 µM for the second.

`CS(=O)(=O)N1CCCC(N2CCc3c(cccc3Oc3ccc(C(F)(F)F)cc3)C2)C1` (stereo not shown) [O-0111, 2-(1-(methylsulfonyl)piperidin-3-yl)-5-(4-(trifluoromethyl)phenoxy)-1,2,3,4-tetrahydroisoquinoline] and `CS(=O)(=O)N1CCC(N2CCc3c(cccc3Oc3ccc(C(F)(F)F)cc3)C2)CC1` [O-0120, 2-(1-(methylsulfonyl)piperidin-4-yl)-5-(4-(trifluoromethyl)phenoxy)-1,2,3,4-tetrahydroisoquinoline] fall in the same range of IC50: 0.001 to 10 µM for the first, 0.001 to 10 µM for the second.

`O=S(=O)(N1CCC(N2CCc3c(cccc3Oc3ccc(C(F)(F)F)cc3)C2)C1)C(F)(F)F` (stereo not shown) [O-0112, 5-(4-(trifluoromethyl)phenoxy)-2-(1-((trifluoromethyl)sulfonyl)pyrrolidin-3-yl)-1,2,3,4-tetrahydroisoquinoline.] and `O=S(=O)(N1CC(N2CCc3c(cccc3Oc3ccc(C(F)(F)F)cc3)C2)C1)C(F)(F)F` [O-0116, 5-(4-(trifluoromethyl)phenoxy)-2-(1-((trifluoromethyl)sulfonyl)azetidin-3-yl)-1,2,3,4-tetrahydroisoquinoline] fall in the same range of IC50: 0.001 to 10 µM for the first, 0.001 to 10 µM for the second.

Compared with `C=CS(=O)(=O)N1CCC(N2CCc3c(cccc3Oc3ccc(C(F)(F)F)cc3)C2)C1` (stereo not shown) [O-0113, 5-(4-(trifluoromethyl)phenoxy)-2-(1-(vinylsulfonyl)pyrrolidin-3-yl)-1,2,3,4-tetrahydroisoquinoline], `C=CS(=O)(=O)N1CC(N2CCc3c(cccc3Oc3ccc(C(F)(F)F)cc3)C2)C1` [O-0118, 5-(4-(trifluoromethyl)phenoxy)-2-(1-(vinylsulfonyl)azetidin-3-yl)-1,2,3,4-tetrahydroisoquinoline.] is higher in IC50: 0.001 to 10 µM for the first, 10 to 100 µM for the second. The first is the more potent here.

`C=CC(=O)N1CCC(N2CCc3c(cccc3Oc3ccc(C(F)(F)F)cc3)C2)C1` (stereo not shown) [O-0114, 1-(3-(5-(4-(trifluoromethyl)phenoxy)-3,4-dihydroisoquinolin-2(1H)-yl)pyrrolidin-1-yl)prop-2-en-1-one] and `C=CC(=O)N1CC(N2CCc3c(cccc3Oc3ccc(C(F)(F)F)cc3)C2)C1` [O-0119, 1-(3-(5-(4-(trifluoromethyl)phenoxy)-3,4-dihydroisoquinolin-2(1H)-yl)azetidin-1-yl)prop-2-en-1-one] fall in the same range of IC50: 0.001 to 10 µM for the first, 0.001 to 10 µM for the second.

Compared with `O=S(=O)(N1CCC(N2CCc3c(cccc3Oc3ccc(C(F)(F)F)cc3)C2)CC1)C(F)(F)F` [O-0121, 5-(4-(trifluoromethyl)phenoxy)-2-(1-((trifluoromethyl)sulfonyl)piperidin-4-yl)-1,2,3,4-tetrahydroisoquinoline], `C=CS(=O)(=O)N1CCC(N2CCc3c(cccc3Oc3ccc(C(F)(F)F)cc3)C2)CC1` [O-0122, 5-(4-(trifluoromethyl)phenoxy)-2-(1-(vinylsulfonyl)piperidin-4-yl)-1,2,3,4-tetrahydroisoquinoline] is higher in IC50: 0.001 to 10 µM for the first, 10 to 100 µM for the second. The first is the more potent here.

`C=CC(=O)N1CCC(N2CCc3c(cccc3Oc3ccc(C(F)(F)F)cc3)C2)CC1` [O-0123, 1-(4-(5-(4-(trifluoromethyl)phenoxy)-3,4-dihydroisoquinolin-2(1H)-yl)piperidin-1-yl)prop-2-en-1-one] gave an IC50 of 0.001 to 10 µM.
